Laboratory results as given in patent US11370771B2, “Inhibitors of TRPC6” (Boehringer Ingelheim International GmbH, priority 2018, dated 2022).

Biological target: T1, human TRPC6 (Homo sapiens, UniProt Q9Y210)
T1 construct: expressed in transfected cells
T1 sequence (Q9Y210 1-931): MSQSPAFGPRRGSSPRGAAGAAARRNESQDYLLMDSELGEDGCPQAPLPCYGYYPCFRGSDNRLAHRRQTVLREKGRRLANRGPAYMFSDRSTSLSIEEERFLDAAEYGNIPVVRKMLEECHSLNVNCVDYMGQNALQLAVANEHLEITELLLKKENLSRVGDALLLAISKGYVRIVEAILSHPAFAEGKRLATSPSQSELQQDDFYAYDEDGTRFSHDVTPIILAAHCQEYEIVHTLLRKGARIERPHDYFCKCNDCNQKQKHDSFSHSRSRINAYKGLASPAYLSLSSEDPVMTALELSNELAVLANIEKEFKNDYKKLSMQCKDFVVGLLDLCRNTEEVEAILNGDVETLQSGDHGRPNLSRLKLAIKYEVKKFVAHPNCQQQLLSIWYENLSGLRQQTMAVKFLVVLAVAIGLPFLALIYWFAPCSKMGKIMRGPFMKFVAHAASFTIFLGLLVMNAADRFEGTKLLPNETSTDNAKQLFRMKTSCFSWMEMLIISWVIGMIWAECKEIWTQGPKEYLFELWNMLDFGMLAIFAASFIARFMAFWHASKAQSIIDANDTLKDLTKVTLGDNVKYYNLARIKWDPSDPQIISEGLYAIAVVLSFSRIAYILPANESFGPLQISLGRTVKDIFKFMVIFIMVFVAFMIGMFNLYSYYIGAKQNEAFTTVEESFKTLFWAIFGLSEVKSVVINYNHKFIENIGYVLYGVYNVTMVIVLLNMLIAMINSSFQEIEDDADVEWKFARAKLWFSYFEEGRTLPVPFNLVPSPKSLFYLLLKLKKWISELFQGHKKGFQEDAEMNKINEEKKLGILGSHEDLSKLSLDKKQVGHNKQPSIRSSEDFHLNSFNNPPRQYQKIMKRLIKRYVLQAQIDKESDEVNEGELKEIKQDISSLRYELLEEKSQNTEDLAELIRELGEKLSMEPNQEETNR
Assay: High Throughput Screening Assay Method 2 (membrane potential dye, GSK1702934A agonist, HEK293 stably transfected with human TRPC6)
Type: cell-based
Settings: antagonist effect against human TRPC6, 3 μM GSK1702934A agonist, HEK293 TRPC6 cells, read-out: Fluorescence TRPC6 IC50
Description: This screening assay measures TRPC6 (transient receptor potential cation channel, subfamily C, member 6) ion channel activation via addition either of the commercially available DAG ligand analogue OAG (1-oleoyl-2-acetyl-sn-glycerol) or of the TRPC6 agonist 1-[1-(4,5,6,7,8-pentahydrocyclohepta[2,1-d]thiophen-2-ylcarbonyl)-4-piperidyl]-3-hydrobenzimidazol-2-one (GSK1702934A). The assay utilizes a FLIPR membrane potential (FMP) dye from Molecular Devices, which is a voltage sensitive indicator with a fluorescent quencher. Changes in membrane potential as measured by the fluorescent signal increase during membrane depolarization provide a measurement of channel activity.
The commercially available HEK293 cell line (ATCC) was stably transfected with an human TRPC6 gene construct in pcDNA3.1(+) (Thermo Fisher) and screened to find a clone with TRPC6 expression. These cells were maintained in growth medium recommended by the manufacturer supplemented with 400 μg/ml G418 to promote retention of the TRPC6 construct. After growing to near confluency, cells were plated at a density of 15,000 cells/well in clear bottom black walled poly-D-Lys coated 384-well tissue culture treated plates (TwinHelix, cat. #GR 4332 CPL) in growth medium lacking G418, and allowed to grow for 24 hrs. Growth media was removed from the wells and cells were then loaded with 20 μL of 0.5× Membrane Potential sensitive dye (Molecular Devices) in the presence of 30 μM BAPTA-AM (Invitrogen) in Tyrode's assay buffer (130 mM NaCl, 5 mM KCl, 0.15 mM CaCl2), 1 mM MgCl2, 5 mM NaHCO3, 20 mM HEPES, pH 7.4) and incubated for 60 min at room temperature in the dark. Ten μL/well of test compound or controls was added to the wells with the FLIPR^TETRA (Molecular Devices) and incubated for 5 minutes. Compounds were tested at eight concentrations (10, 3.16, 1, 0.316, 0.1, 0.0316, 0.01 and 0.00316 μM diluted in Tyrode's assay buffer and 0.5% DMSO, final concentration) with inter-plate duplicate data points. Subsequently, 15 μL/well of GSK1702934A agonist in Tyrode's assay buffer was added to a final concentration of 3 μM by the FLIPR^TETRA and the signal of the emitted fluorescence (Excitation: 510-545 nm, Emission: 565-625 nm) was recorded for 3 minutes. Negative and positive controls were included on each plate. Negative controls wells consisted of cells exposed to Tyrode's assay buffer and agonist solution, but no test compound. Positive control consisted of cells exposed to […] Verapamil hydrochloride (Tocris, cat. #0654) diluted in Tyrode's assay buffer and 0.5% DMSO final concentration and agonist solution. Inhibition was expressed as a percentage of control, with 0% activity being a result in which the response value of the test wells reached a level identical to the wells containing Verapamil plus GSK1702934A and 100% activity being a result in which the response value of the test wells reached a level identical to the wells containing GSK1702934A alone. Genedata Screener® 14.0.6 was used for data analysis to fit IC50 curves.

IC50	SMILES
0.791 µM	COc1cc(N)ncc1C1CCN(C(=O)c2ccc(OC[C@@H]3C[C@H]3C)cc2F)CC1 (relative stereo) [Compound 38, 5-[1-(2-Fluoro-4-{[trans-2-methylcyclopropyl]methoxy}benzoyl)piperidin-4-yl]-4-methoxypyridin-2-amine]
0.097 µM	COc1cc(N)ncc1N1CCN(C(=O)c2ccc(Oc3ccc(F)cc3)cc2F)C2(CC2)C1 [Compound 27, 5-{4-[2-Fluoro-4-(4-fluorophenoxy)benzoyl]-4,7-diazaspiro[2.5]octan-7-yl}-4-methoxypyridin-2-amine]
0.135 µM	COc1cc(N)ncc1N1CCN(C(=O)c2cc(F)c(Oc3ccc(F)cc3)cc2F)C2(CC2)C1 [Compound 28, 5-{4-[2,5-Difluoro-4-(4-fluorophenoxy)benzoyl]-4,7-diazaspiro[2.5]octan-7-yl}-4-methoxypyridin-2-amine]
0.158 µM	COc1cc(C(=O)N2CCC(c3cnc(N)cc3OC)CC2)c(F)cc1Oc1ccc(F)cc1 [Compound 29, 5-{1-[2-Fluoro-4-(4-fluorophenoxy)-5-methoxybenzoyl]piperidin-4-yl}-4-methoxypyridin-2-amine]
0.166 µM	COc1cc(N)ncc1C1CCN(C(=O)c2cc(F)c(Oc3ccc(F)cc3)cc2F)CC1 [Compound 30, 5-{1-[2,5-Difluoro-4-(4-fluorophenoxy)benzoyl]piperidin-4-yl}-4-methoxypyridin-2-amine]
0.205 µM	COc1cc(N)ncc1C1CCN(C(=O)c2ccc(Oc3ccc(F)cc3)cc2F)CC1 [Compound 31, 5-{1-[2-Fluoro-4-(4-fluorophenoxy)benzoyl]piperidin-4-yl}-4-methoxypyridin-2-amine]
0.097 µM	COc1cc(N)ncc1C1CCN(C(=O)c2ccc(Oc3ccc(F)cc3)cc2)CC1 [Compound 32, 5-{1-[4-(4-Fluorophenoxy)benzoyl]piperidin-4-yl}-4-methoxypyridin-2-amine]
0.25 µM	COc1cc(C(=O)N2CCC(c3cnc(N)cc3OC)CC2)c(F)cc1OCC(C)C [Compound 33, 5-{1-[2-Fluoro-5-methoxy-4-(2-methylpropoxy)benzoyl]piperidin-4-yl}-4-methoxypyridin-2-amine]
0.428 µM	COc1cc(C(=O)N2CCC(c3cnc(N)cc3OC)CC2)c(F)cc1OCC1CC(C)C1 (stereo not shown) [Compound 34, 5-(1-{2-Fluoro-5-methoxy-4-[(3-methylcyclobutyl)methoxy]benzoyl}piperidin-4-yl)-4-methoxypyridin-2-amine]
0.154 µM	COc1cc(C(=O)N2CCC(c3cnc(N)cc3OC)CC2)c(F)cc1OCC1CC1 [Compound 35, 5-{1-[4-(Cyclopropylmethoxy)-2-fluoro-5-methoxybenzoyl]piperidin-4-yl}-4-methoxypyridin-2-amine]
0.135 µM	COc1cc(C(=O)N2CCC(c3cnc(N)cc3OC)CC2)c(F)cc1OCC1CCC1 [Compound 36, 5-{1-[4-(Cyclobutylmethoxy)-2-fluoro-5-methoxybenzoyl]piperidin-4-yl}-4-methoxypyridin-2-amine]
0.478 µM	COc1cc(C(=O)N2CCC(c3cnc(N)cc3OC)CC2)c(F)cc1OCC1CC(F)(F)C1 [Compound 37, 5-(1-{4-[(3,3-Difluorocyclobutyl)methoxy]-2-fluoro-5-methoxybenzoyl}piperidin-4-yl)-4-methoxypyridin-2-amine]
0.662 µM	CCCOc1ccc(C(=O)N2CCC(c3cnc(N)cc3OC)CC2)c(F)c1 [Compound 39, 5-[1-(2-Fluoro-4-propoxybenzoyl)piperidin-4-yl]-4-methoxypyridin-2-amine]
0.482 µM	COc1cc(N)ncc1C1CCN(C(=O)c2ccc(OCc3csnn3)cc2F)CC1 [Compound 40, 5-(1-{2-Fluoro-4-[(1,2,3-thiadiazol-4-yl)methoxy]benzoyl}piperidin-4-yl)-4-methoxypyridin-2-amine]
2.17 µM	COc1cc(N)ncc1C1CCN(C(=O)c2ccc(OCC3CCCCC3)cc2F)CC1 [Compound 41, 5-{1-[4-(Cyclohexylmethoxy)-2-fluorobenzoyl]piperidin-4-yl}-4-methoxypyridin-2-amine]
0.789 µM	COc1cc(N)ncc1C1CCN(C(=O)c2ccc(OCCC3CC3)cc2F)CC1 [Compound 42, 5-{1-[4-(2-Cyclopropylethoxy)-2-fluorobenzoyl]piperidin-4-yl}-4-methoxypyridin-2-amine]
1.81 µM	COc1cc(N)ncc1C1CCN(C(=O)c2ccc(OCc3ccccc3)cc2F)CC1 [Compound 43, 5-{1-[4-(Benzyloxy)-2-fluorobenzoyl]piperidin-4-yl}-4-methoxypyridin-2-amine]
0.199 µM	COc1cc(C(=O)N2CCC(c3cnc(N)cc3OC)CC2)ccc1OCC1CCC1 [Compound 44, 5-{1-[4-(Cyclobutylmethoxy)-3-methoxybenzoyl]piperidin-4-yl}-4-methoxypyridin-2-amine]
0.061 µM	Nc1ccc(C2CCN(C(=O)c3cc(F)c(Oc4ccc(F)cc4)cc3F)CC2)nn1 [Compound 45, 6-{1-[2,5-Difluoro-4-(4-fluorophenoxy)benzoyl]piperidin-4-yl}pyridazin-3-amine]
0.057 µM	Nc1ccc(C2CCN(C(=O)c3ccc(Oc4ccc(F)cc4)cc3F)CC2)nn1 [Compound 46, 6-{1-[2-Fluoro-4-(4-fluorophenoxy)benzoyl]piperidin-4-yl}pyridazin-3-amine]
0.034 µM	COc1cc(C(=O)N2CCC(c3ccc(N)nn3)CC2)c(F)cc1Oc1ccc(F)cc1 [Compound 47, 6-{1-[2-Fluoro-4-(4-fluorophenoxy)-5-methoxybenzoyl]piperidin-4-yl}pyridazin-3-amine]
0.141 µM	Nc1ccc(C2CCN(C(=O)c3ccc(Oc4ccc(F)cc4)c(F)c3)CC2)nn1 [Compound 48, 6-{1-[3-Fluoro-4-(4-fluorophenoxy)benzoyl]piperidin-4-yl}pyridazin-3-amine]
1.16 µM	Nc1ccc(C2CCN(C(=O)c3ccc(Oc4ccccc4)c(C(F)(F)F)c3)CC2)nn1 [Compound 49, 6-{1-[4-Phenoxy-3-(trifluoromethyl)benzoyl]piperidin-4-yl}pyridazin-3-amine]
0.288 µM	Cc1cc(C2CCN(C(=O)c3ccc(Oc4ccc(F)cc4)cc3)CC2)nnc1N [Compound 50, 6-{1-[4-(4-Fluorophenoxy)benzoyl]piperidin-4-yl}-4-methylpyridazin-3-amine]
0.182 µM	COc1cc(C(=O)N2CCC(c3nnc(N)cc3C)CC2)c(F)cc1Oc1ccc(F)cc1 [Compound 51, 6-{1-[2-Fluoro-4-(4-fluorophenoxy)-5-methoxybenzoyl]piperidin-4-yl}-5-methylpyridazin-3-amine]
